Data from the NIST ThermoML archive (doi:10.1016/j.jct.2016.11.002).

Legend:
[1] = xn = mol fraction of the nth substance listed; settings: 100 kPa, Liquid; for speed of sound: Frequency=3 MHz, Single path-length method; for mass density: Vibrating tube method
[2] = refractive index (Na D-line) (dimensionless); xn = mol fraction of the nth substance listed; settings: 100 kPa, Liquid, Standard Abbe refractometry

CCCOCCO [2-propoxyethanol] + CCOC(=O)OCC
Settings	mass density, [1] [kg/m3]	refractive index, [2]	speed of sound, [1] [m/s]
298.15 K, x2 = 0	907.16	1.4103	1300.9
298.15 K, x2 = 0.0881	912.3	1.4089	1289.1
298.15 K, x2 = 0.1907	918.42	1.4074	1276.1
298.15 K, x2 = 0.2866	924.17	1.4062	1264
298.15 K, x2 = 0.3906	930.48	1.4046	1250.3
298.15 K, x2 = 0.484	936.17	1.4023	1237.8
298.15 K, x2 = 0.5955	943.04	1.3988	1223.4
298.15 K, x2 = 0.6907	948.97	1.3953	1211.7
298.15 K, x2 = 0.7908	955.29	1.3914	1200
298.15 K, x2 = 0.8939	961.94	1.3871	1188.5
303.15 K, x2 = 0	902.74	1.4081	1283.7
303.15 K, x2 = 0.0881	907.76	1.4068	1271.7
303.15 K, x2 = 0.1907	913.74	1.4054	1258.2
303.15 K, x2 = 0.2866	919.36	1.4042	1245.6
303.15 K, x2 = 0.3906	925.55	1.4026	1231.5
303.15 K, x2 = 0.484	931.11	1.4004	1218.7
303.15 K, x2 = 0.5955	937.84	1.3968	1203.9
303.15 K, x2 = 0.6907	943.65	1.3933	1192
303.15 K, x2 = 0.7908	949.85	1.3894	1180.1
303.15 K, x2 = 0.8939	956.4	1.385	1168.3
308.15 K, x2 = 0	898.32	1.4058	1266.4
308.15 K, x2 = 0.0881	903.19	1.4046	1254.2
308.15 K, x2 = 0.1907	909.01	1.4034	1240.2
308.15 K, x2 = 0.2866	914.52	1.4023	1227.1
308.15 K, x2 = 0.3906	920.55	1.4006	1212.7
308.15 K, x2 = 0.484	926.02	1.3984	1199.7
308.15 K, x2 = 0.5955	932.6	1.3948	1184.6
308.15 K, x2 = 0.6907	938.31	1.3912	1172.3
308.15 K, x2 = 0.7908	944.38	1.3873	1160.2
308.15 K, x2 = 0.8939	950.83	1.3828	1148.2
313.15 K, x2 = 0	893.89	1.4034	1249.2
313.15 K, x2 = 0.0881	898.63	1.4024	1236.8
313.15 K, x2 = 0.1907	904.33	1.4014	1222.3
313.15 K, x2 = 0.2866	909.68	1.4004	1208.8
313.15 K, x2 = 0.3906	915.57	1.3987	1194
313.15 K, x2 = 0.484	920.91	1.3964	1180.7
313.15 K, x2 = 0.5955	927.35	1.3928	1165.3
313.15 K, x2 = 0.6907	932.94	1.3892	1152.9
313.15 K, x2 = 0.7908	938.9	1.3851	1140.5
313.15 K, x2 = 0.8939	945.23	1.3805	1128.3
318.15 K, x2 = 0	889.45	1.4011	1231.9
318.15 K, x2 = 0.0881	894.03	1.4003	1219.3
318.15 K, x2 = 0.1907	899.58	1.3995	1204.5
318.15 K, x2 = 0.2866	904.8	1.3985	1190.6
318.15 K, x2 = 0.3906	910.54	1.3967	1175.3
318.15 K, x2 = 0.484	915.74	1.3944	1161.8
318.15 K, x2 = 0.5955	922.05	1.3908	1146.2
318.15 K, x2 = 0.6907	927.53	1.3872	1133.5
318.15 K, x2 = 0.7908	933.4	1.3831	1121
318.15 K, x2 = 0.8939	939.63	1.3782	1108.6
323.15 K, x2 = 0	885	1.3988	1215
323.15 K, x2 = 0.0881	889.44	1.3982	1201.9
323.15 K, x2 = 0.1907	894.82	1.3975	1186.8
323.15 K, x2 = 0.2866	899.91	1.3966	1172.5
323.15 K, x2 = 0.3906	905.53	1.3947	1156.9
323.15 K, x2 = 0.484	910.62	1.3924	1143.2
323.15 K, x2 = 0.5955	916.75	1.3888	1127.3
323.15 K, x2 = 0.6907	922.11	1.3852	1114.5
323.15 K, x2 = 0.7908	927.83	1.3809	1101.7
323.15 K, x2 = 0.8939	933.96	1.376	1089
